Results as given in patent US20230399358A1, “IMMUNOGLOBULIN PURIFICATION PEPTIDES AND THEIR USE” (North Carolina State University, priority 2019, published 2023).
Non-standard residues stand in square brackets, D forms with d. No end group written: not given here. Cit = NC(=O)NCCC[C@H](N)C(=O)O; Nle = CCCC[C@H](N)C(=O)O

Target: human polyclonal IgG (human)
Experiment: batch incubation of peptide-Toyopearl resin with human IgG, Bradford of unbound IgG; mg IgG bound relative to MWRGWQ
Settings: not given

Row | % Binding | Molecule
1 | 0.48% | MW[Cit]GWQ [MW(Cit)GWQ (SEQ ID NO:25)]
2 | 97% | MWRAWQ [MWRAWQ (SEQ ID NO:5)]
3 | 89.2% | MWRGFQ [MWRGFQ (SEQ ID NO:7)]
4 | 74.7% | [Nle]WRGWQ [(NorL)WRGWQ (SEQ ID NO:23)]
5 | 26% | MWRGGQ [MWRGGQ (SEQ ID NO:26)]
6 | 78.4% | GWRGWQ [GWRGWQ (SEQ ID NO:8)]
7 | 56.8% | MFRGWQ [MFRGWQ (SEQ ID NO:21)]
8 | 91.5% | MWRWQ [MWRWQ (SEQ ID NO:6)]
9 | 18.9% | MWRGWN [MWRGWN (SEQ ID NO:22)]

Target: human polyclonal IgG (human)
Experiment: batch incubation of peptide-Toyopearl resin with human IgG, Bradford of unbound IgG; mg IgG bound relative to WQRHGI
Settings: not given

Row | Molecule | % Binding
10 | WQRHI [WQRHI (SEQ ID NO:33)] | 86.9%
11 | WQRHGV [WQRHGV (SEQ ID NO:10)] | 96%
12 | WQRHAI [WQRHAI (SEQ ID NO:11)] | 95.4%
13 | WNRHGI [WNRHGI (SEQ ID NO:12)] | 77.4%
14 | FQRHGI [FQRHGI (SEQ ID NO:29)] | 37.2%

Other lines, results leading:

Row | % Binding | Molecule
15 | 0.95% | WQ[Cit]HGI [WQ(Cit)HGI (SEQ ID NO:27)]
16 | 62.8% | WQRAGI [WQRAGI (SEQ ID NO:28)]
17 | 99.1% | WQRHGL [WQRHGL (SEQ ID NO:9)]

Test system: human polyclonal IgG in CHO-S cell culture fluid
Experiment: Static purification of IgG from CHO cell culture supernatant on peptide-Toyopearl resins, SDS-PAGE densitometry
Settings: Gel A, lane FT (flow-through)
Experimental: (§1) Measurement of IgG binding by peptide-based chromatographic adsorbents: For initial studies, 35 mg of MWRGWQ (SEQ ID NO:2)-Toyopearl, RHLGWF (SEQ ID NO:3)-Toyopearl, WQRHGI (SEQ ID NO:1)-Toyopearl, GWLHQR (SEQ ID NO:4)-Toyopearl, and HWRGWV (SEQ ID NO:18)-Toyopearl (control) resins were equilibrated in PBS pH 7.4, reaching a swollen volume of 0.1 mL, and subsequently incubated with 1 mg/mL IgG in 0.205 mg/mL CHO cell culture supernatant for 30 minutes. The resins were subsequently washed several times with PBS to remove non-specifically bound proteins. Elution was performed with 100 mM glycine buffer pH 2.5. Flowthrough and elution fractions were collected and analyzed by SDS PAGE under reducing conditions. The resulting gels were stained with Coomassie staining. Further, 25 mg of the adsorbents MWRGWQ (SEQ ID NO:2)-Toyopearl, NIFRGWQ (SEQ ID NO:21)-Toyopearl, MWRAWQ (SEQ ID NO:5)-Toyopearl, MWRGFQ (SEQ ID NO:7)-Toyopearl, MWRGWN (SEQ ID NO:22)-Toyopearl, (NorL) WRGWQ (SEQ ID NO:23)-Toyopearl, MGRGWQ (SEQ ID NO:24)-Toyopearl, MWRWQ (SEQ ID NO:6)-Toyopearl, MWRGGQ (SEQ ID NO:26)-Toyopearl, GWRGWQ (SEQ ID NO:8)-Toyopearl, WQRHGI (SEQ ID NO:1)-Toyopearl, WNRHGI (SEQ ID NO:12)-Toyopearl, WQRAGI (SEQ ID NO:28)-Toyopearl, WQRHAI (SEQ ID NO:11)-Toyopearl, WQRHGL (SEQ ID NO:9)-Toyopearl, FQRHGI (SEQ ID NO:29)-Toyopearl, and WQRHGV (SEQ ID NO:10)-Toyopearl resins were equilibrated in PBS pH 7.4, reaching a swollen volume of 0.1 mL, and subsequently incubated with 1 mg/mL IgG in PBS at pH 7.4 for 30 minutes. The amount of unbound IgG in the supernatant samples was quantified by Bradford assay and utilized to determine the IgG binding % by the peptide variants.
Characterization of IgG-binding peptide variants WQRHGI (SEQ ID NO:1), MWRGWQ (SEQ ID NO:2), RHLGWF (SEQ ID NO:3), and GWLHQR (SEQ ID NO:4) in competitive conditions: The four selected sequence variants were tested for their ability to purify human IgG from a CHO cell culture supernatant and found largely to mirror their in silico predictions. Even though they seemed to underperform in silico, RHLGWF (SEQ ID NO:3) and GWLHQR (SEQ ID NO:4) were tested alongside WQRHGI (SEQ ID NO:1) and MWRGWQ (SEQ ID NO:2) in these conditions in order to confirm their ability to bind IgG and examine their selectivity as predicted in silico. The feedstock was prepared by spiking human polyclonal IgG into a clarified null CHO-S cell culture fluid to obtain an IgG concentration of 1 mg/mL and a CHO HCP concentration of 0.205 mg/mL. An aliquot of 500 μL was loaded onto each peptide adsorbent in static conditions for 30 min. Following a washing step with PBS to remove loosely bound proteins, a first elution step was conducted using 0.1 M glycine buffer pH 2.5 to remove all bound proteins. Flow through fractions and pH 2.5 elution fractions were loaded neat and analyzed by SDS PAGE (FIGS. 6A-6B). The values of IgG purity in the eluted fractions were determined by densitometric analysis of the corresponding lanes on the gels, and are reported in Table 9.

Row | Molecule | % Purity (IgG over total proteins)
18 | RHLGWF | 100.00%

Same assay, conditions: Gel A, lane R (pH 2.5)

Row | Molecule | % Purity (IgG over total eluted proteins)
19 | RHLGWF | 52.28%

Same assay, conditions: competitive conditions, CHO cell culture supernatant

Row | Molecule | IgG yield
20 | RHLGWF | high IgG yield

Same assay, conditions: competitive conditions, in vitro

Row | Molecule | selectivity for IgG over HCPs
21 | RHLGWF | non-selective

Test system: host cell protein (HCP)
Experiment: not given
Settings: literature value; cited from earlier work

Row | Molecule | HCP LRV
22 | Ac-HW[Cit]GWV | 2.07

Test system: human IgG
Experiment: not given
Type: binding
Settings: peptide on Toyopearl AF-amino-650M, 30 min, room temperature
Experimental: as §1
A limited library of residue-by-residue changes confirmed the importance of each residue in peptides WQRHGI (SEQ ID NO:1) and MWRGWQ (SEQ ID NO:2) in reducing the binding energy between the peptide and the IgG target. […] This was accomplished by designing and constructing an ensemble of 20 variants of peptides WQRHGI (SEQ ID NO:1) and MWRGWQ (SEQ ID NO:2). Selected residues in positions 1-6 were mutated. The peptide variants were synthesized directly on Toyopearl AF-amino-650M resin via Fmoc/tBu chemistry. The resulting adsorbents were incubated with a solution of human IgG at 2 mg/mL at a ratio of 1 mL of resin per 3.5 mL of solution for 30 min at room temperature. The residual concentration of IgG in solution was determined by Bradford concentration assay of the supernatants and utilized to calculate the amounts of bound IgG per volume of resin; Table 7 reports the % binding, defined as mg IgG bound by variant/mg IgG bound by original sequence (either WQRHGI (SEQ ID NO:1) or MWRGWQ (SEQ ID NO:2))×100%, of each sequence variant.

Row | Molecule | % Binding (mg IgG bound by variant/mg IgG bound by original sequence × 100%)
23 | MWRGGQ | 26.00%
24 | WQRHGL | 99.09%
25 | MW(Cit)GWQ (MW[Cit]GWQ) [MWχGWQ] | 0.48%
26 | MGRGWQ | Undetected
27 | MFRGWQ | 56.75%
28 | GWRGWQ | 78.37%
29 | WQRAGI | 62.80%
30 | MWRGWN | 18.90%

Other lines, results leading:

Row | % Binding (mg IgG bound by variant/mg IgG bound by original sequence × 100%) | Molecule
31 | 89.19% | MWRGFQ [MWRGEQ]
32 | 86.89% | WQRHI
33 | 96.96% | MWRAWQ
34 | 96.04% | WQRHGV
35 | 0.95% | WQ(Cit)HGI (WQ[Cit]HGI) [WQχHGI]
36 | 74.66% | (NorL)WRGWQ ([Nle]WRGWQ) [ΛWRGWQ, Λ represents Nor-Leucine]
37 | 37.18% | FQRHGI
38 | 95.43% | WQRHAI
39 | 77.43% | WNRHGI
40 | 91.55% | MWRWQ
